Patent publication US20200308299A1, “ANTI-GPC-1 ANTIBODY” (National University Corporation Kochi University, priority 2017, published 2020)
pIC50: −log10 of the molar value. Non-standard residues stand in square brackets, D forms with d. Residues, ends and D or L forms follow the SMILES beside them. *: point of attachment. Dolaproine = CO[C@@H]([C@@H]1CCCN1)[C@@H](C)C(=O)O; Dil = CC[C@H](C)[C@H](NC)[C@@H](CC(=O)O)OC; X1 = C[C@@H](N*)[C@@H](O)c1ccccc1; NMeV = CN[C@H](C(=O)O)C(C)C

Test system: TE14 cells
Assay: Anticancer agent sensitivity of TE14 cells (CellTiter-Glo cell viability)
Format: cell-based
Details: cultured 6 days
Method: 2000 TE14 cells were added to a 96-well plate at 90 μl. The cells were cultured overnight at 37° C. in a 5% CO2 incubator. The next day, 10 μl of an anticancer agent concentrated 10-fold relative to the final concentration was added to each well, so that the total amount was 100 μl. The cells were cultured for 6 days at 37° C. in a 5% CO2 incubator. The cell viability was measured by using a CellTiter-Glo Luminescent Cell Viability Assay reagent to detect the amount of ATP. RPMI1640+10% FBS+1% PS was used as the medium. MMAE (model number: 474645-27-7, ALB Technology) and MMAF (model number: 745017-94-1, ALB Technology) were used as the anticancer agent.

Row | Structure (SMILES) | pIC50
1 | CC[C@H](C)[C@@H]([C@@H](CC(=O)N1CCC[C@H]1[C@H](OC)[C@@H](C)C(=O)N[C@H](C)[C@@H](O)c1ccccc1)OC)N(C)C(=O)[C@@H](NC(=O)[C@@H](NC)C(C)C)C(C)C [MMAE, monomethyl auristatin-E] (H-[NMeV]V[Dil][Dolaproine]-X1) | 9.03
2 | CC[C@H](C)[C@@H]([C@@H](CC(=O)N1CCC[C@H]1[C@H](OC)[C@@H](C)C(=O)N[C@@H](Cc1ccccc1)C(=O)O)OC)N(C)C(=O)[C@@H](NC(=O)[C@@H](NC)C(C)C)C(C)C [MMAF, monomethyl auristatin-F] (H-[NMeV]V[Dil][Dolaproine]F-OH) | 7.57
